Laboratory results: US10174067B2, “Type of cytidine derivative and application thereof” (priority 2014, dated 2019)
Marks after values point to notes of the source that are not given here.

Columns and labels:
[1] = test system: HCT-116 colon cancer xenografts; experiment: Tumor growth inhibition of HCT-116 colon cancer xenografts in tumor-bearing nude mice (tumor volume, TGI %, RTV, T/C %); assay type: in vivo, Balb/c Nude mice
Description: 4.1 Tumor cells: colon cancer HCT-116 cells, purchased from the Institute of Cell Biology, Chinese Academy of Sciences. The cells were incubated by F-12 medium (containing 10% FBS) in carbon dioxide incubator at 37° C. and in saturated humidity, with 5% CO2 and 95% air in volume fraction. Before inoculation, the cells at logarithmic phase were taken, and digested with 0.25% trypsin, washed once with PBS and resuspended in PBS for counting. The cells were resuspended in serum-free medium and adjusted to about 3×10^7 cell/mL.
The grouping is as follows:
The formations of tumor at the inoculation site of each group of nude mice were observed. The diameter of tumor nodule (D) was measured three times a week with round hole ruler, and the volume of tumor nodule (V) was calculated according to the following formula: […].
Anti-tumor activity was evaluated by tumor growth inhibition rate TGI (%) and relative tumor proliferation rate T/C (%).
The relative tumor volume (RTV) was calculated as: RTV=Vt/V0, where V0 was the tumor volume when they were grouped and administered, and Vt was the tumor volume at the time of measurement.
The relative proliferation rate T/C (%) was calculated as: […].
TRTV: RTV of the treatment group; CRTV: RTV of the control group.
P<0.05 was considered as significant difference.

[2] = test system: ICR mice; experiment: in vivo; conditions: female ICR mice; single-dose ip
Description: This experiment was to investigate the toxic effects of single-dose intraperitoneal administration on ICR mice and determine the maximum tolerated dose (MTD) of each subject. Maximum tolerated dose (MTD) refers to the dose that may not cause an animal to die, may not cause the animal to suffer weight loss exceeding 10% (compared with Day 0), or may not produce significant side effects.
(§1) The corresponding amount of test substance was taken in a 5 mL glass tube and dissolved in ethanol with a 5 mm magnetic stirrer for stirring. After dissolving completely, Cremophor EL was added with continuous stirring. The marked amount of saline was added and mixed evenly before use. The volume ratio of ethanol, Cremophor EL, and physiological saline was 5:5:90.
Varieties and lines: ICR mice; level: SPF; sex: female.
Method of administration: ip. The dose was reduced in case of animal death, till an animal survived; the dose was increased in case of no animal death; the test was ended when the animals survived normally at the given high dose. Finally, the MTD of the mice on the test substances was determined according to the test results. The animals were observed continuously for 7 days after acute administration.
During the experiment, all animals were under detailed and continuous clinical observation for […], twice a day (10:00 am, 16:00 pm) after administration. The observation included but not limited to: skin, hair, ear, nose, mouth, chest, abdomen, external genitalia, limbs and feet, respiratory and circulatory system, autonomic effects (such as salivation), nervous system (such as tremor, convulsions, stress response and abnormal behavior).
The body of animals was weighed before administration, and then weighed and recorded at the same time each day.
The observation results, animal body weight, and animal survival after one week of administration were recorded in detail every day.

[3] = Description: To determine the growth inhibition effect and toxicity of the cytidine derivative samples of the present invention on the transplanted tumor of nude mice bearing colon cancer HCT-116.
as §1
Varieties and lines; Balb/c Nude mice; level: SPF; sex: female.
4.2 Animal inoculation and grouping: Each nude mouse was inoculated subcutaneously with 0.1 mL of cell suspension (3×10^6 cell/mouse) at right side of hind limb in a sterile stale. When the tumor grew to about 60-150 mm^3, the nude mice with similar tumor volume and desirable shape were selected (it would be better to select single spherical shape, no irregular shape or multiple tumors grouped together) for grouping, 6 mice a group. The grouping is as follows:
The control group, namely the model control group, was injected with a mixture of ethanol, Cremophor EL, and saline (5:5:90).
Those mice were weighed three times a week.
All clinical symptoms of each animal should be recorded at the beginning of the test and during the test. The observations should be made at the same time each day.
An animal would be killed by CO2 when its weight loss was more than 20%, when it was about to die, or when its tumor volume exceeded 2800 mm^3. The tumor was separated and weighed, and the animal was autopsied and observed to evaluate and record whether there were pathological changes in the organs.
The data were expressed as Mean±SEM unless specially provided; Non-pairing T test was performed for the data between the two groups. P<0.05 was considered as significant difference.

[4] = Day 0, G3-G9 groups, single IP dose, Mean±SEM
[5] = Day 4, G3-G9 groups, single IP dose, Mean±SEM
[6] = Day 6, G3-G9 groups, single IP dose, Mean±SEM
[7] = Day 8, G3-G9 groups, single IP dose, Mean±SEM
[8] = Day 11, G3-G9 groups, single IP dose, Mean±SEM
[9] = Day 13, G3-G9 groups, single IP dose, Mean±SEM
[10] = Day 15, G3-G9 groups, single IP dose, Mean±SEM
[11] = Day 18, G3-G9 groups, single IP dose, Mean±SEM
[12] = Day 20, G3-G9 groups, single IP dose, Mean±SEM
[13] = Day 22, G3-G9 groups, single IP dose, Mean±SEM

O=C(Nc1ccn([C@@H]2O[C@H](CO)[C@@H](O)C2(F)F)c(=O)n1)OCc1ccccc1 [Compound G4, 4-N-(carboxybenzyl)-2′-deoxy-2′,2′-difluorocytidine]
Day 0 (RTV) [1, 4]: 1.00 ± 0.00
Tumor volume, Day 0 [1, 4]: 63.44 ± 18.74** mm^3
Day 4 (TGI %) ([1]; Day 4, G3-G9 groups, single IP dose): 83.29%
Day 4 (RTV) [1, 5]: 0.70 ± 0.13
Tumor volume, Day 4 [1, 5]: 44.53 ± 13.75** mm^3
Day 6 (TGI %) ([1]; Day 6, G3-G9 groups, single IP dose): 89.82%
Day 6 (RTV) [1, 6]: 0.68 ± 0.10
Tumor volume, Day 6 [1, 6]: 43.04 ± 10.69** mm^3
Day 8 (TGI %) ([1]; Day 8, G3-G9 groups, single IP dose): 91.66%
Day 8 (RTV) [1, 7]: 0.69 ± 0.13
Tumor volume, Day 8 [1, 7]: 43.83 ± 12.73** mm^3
tumor inhibition effect ([1]; Day 8 to Day 13 after single-dose intraperitoneal administration): good tumor inhibition effect
Day 11 (TGI %) ([1]; Day 11, G3-G9 groups, single IP dose): 92.58%
Day 11 (RTV) [1, 8]: 1.12 ± 0.29
Tumor volume, Day 11 [1, 8]: 59.68 ± 11.72** mm^3
Day 13 (TGI %) ([1]; Day 13, G3-G9 groups, single IP dose): 92.57%
Day 13 (RTV) [1, 9]: 1.51 ± 0.39
Tumor volume, Day 13 [1, 9]: 86.22 ± 24.86** mm^3
Day 15 (TGI %) ([1]; Day 15, G3-G9 groups, single IP dose): 90.04%
Day 15 (RTV) [1, 10]: 2.80 ± 0.97
Tumor volume, Day 15 [1, 10]: 140.70 ± 34.22** mm^3
Day 18 (TGI %) ([1]; Day 18, G3-G9 groups, single IP dose): 85.93%
Day 18 (RTV) [1, 11]: 5.36 ± 1.82
Tumor volume, Day 18 [1, 11]: 260.52 ± 51.15** mm^3
Day 20 (TGI %) ([1]; Day 20, G3-G9 groups, single IP dose): 78.95%
Day 20 (RTV) [1, 12]: 9.65 ± 3.23
Tumor volume, Day 20 [1, 12]: 446.16 ± 65.85** mm^3
Day 22 (TGI %) ([1]; Day 22, G3-G9 groups, single IP dose): 75.68%
Day 22 (RTV) [1, 13]: 14.66 ± 5.30
Tumor volume, Day 22 [1, 13]: 636.07 ± 78.89** mm^3
T/C % on Day 22 ([1]; Day 22, G4 350 mg/kg, G5 325 mg/kg, G7 250 mg/kg, single IP): 75.38%
relative tumor volume compared with the model control group ([1]; G4 and G5 Day 4 to Day 18, G7 Day 4 to Day 15 (p<0.05-0.01), G9 only Day 4 (p<0.05)): reduced significantly
maximum value of TGI % ([1]; day of maximum: G3 Day 8, G4 Day 11, G5 Day 11, G9 Day 4, G7 Day 8, single IP): 92.58%
minimum value of T/C % ([1]; day of minimum: G4 Day 13, G5 Day 11, G7 Day 8, single IP): 17.62%
dose that could be tolerated (maximum tolerated dose, MTD) [2]: 350 mg/kg
Weight change rate, Day 0 [3, 4]: 0.00 ± 0.00%
Weight of mice, Day 0 [3, 4]: 20.20 ± 0.55 g
weights of animals on Day 4 after administration ([3]; Day 4 (G7: Day 4 and Day 6), p<0.05): significantly reduced
Weight change rate, Day 4 [3, 5]: −10.91 ± 3.45 %
Weight of mice, Day 4 [3, 5]: 18.22 ± 1.19 g
weight loss rate on Day 4 after administration ([3]; Day 4, G4 350 mg/kg, G5 325 mg/kg, G7 250 mg/kg, single IP): 10.91±3.45%
animals died on Day 4 after administration ([3]; Day 4, G4 350 mg/kg, G8 350 mg/kg, G6 300 mg/kg, single IP, 6 mice a group): 1
Weight change rate, Day 6 [3, 6]: −1.87 ± 2.96%
Weight of mice, Day 6 [3, 6]: 20.06 ± 1.18 g
Weight change rate, Day 8 [3, 7]: 0.30 ± 1.84%
Weight of mice, Day 8 [3, 7]: 20.48 ± 0.97 g
Weight change rate, Day 11 [3, 8]: 3.85 ± 5.08%
Weight of mice, Day 11 [3, 8]: 21.08 ± 0.76 g
Weight change rate, Day 13 [3, 9]: 7.64 ± 4.55%
Weight of mice, Day 13 [3, 9]: 21.86 ± 0.67 g
Weight change rate, Day 15 [3, 10]: 8.84 ± 4.33%
Weight of mice, Day 15 [3, 10]: 22.10 ± 0.57 g
Weight change rate, Day 18 [3, 11]: 9.28 ± 3.53 %
Weight of mice, Day 18 [3, 11]: 22.20 ± 0.43 g
Weight change rate, Day 20 [3, 12]: 10.50 ± 4.03 %
Weight of mice, Day 20 [3, 12]: 22.44 ± 0.49 g
Weight change rate, Day 22 [3, 13]: 11.39 ± 4.05%
Weight of mice, Day 22 [3, 13]: 22.62 ± 0.49 g
Day 22 Mortality ([3]; Day 22, single IP dose (mg/kg)): 17%
body weight compared with model control group ([3]; G4 Day 18 to Day 20 (p<0.05), G5 Day 13 to Day 20 (p<0.05~0.01)): significantly increased
clinical symptoms ([3]; after single IP dose, compared with model control group): 3 animals had less activity, loss of body weight, and body surface temperature lower than normal
